Patent US20160304970A1, “GENE BIOMARKER TO DIAGNOSE METASTIC LIVER CANCER AND METHODS FOR TARGETING THE SAME” (University of Southern California, priority 2015, published 2016)

Legend:
TICs [1] = assay: RNA sequencing of drug treated TICs; format: cell-based, mouse; settings: ATRA 5 μg/ml, 16 hours
Experimental: RNA sequencing samples were collected at 16 hours of treatment with ATRA (5 μg/ml), SAHA (0.5 μg/ml) or combination treatment. Total RNA for RNA sequencing was extracted using RNeasy Plus Mini Kit (Qiagen), which includes a DNA depletion column. DNase I treatment and rRNA depletion with Tibozero technology were performed before RNA sequencing. Sample quantity and quality was verified by spectrophotometry (NanoDrop 1000), fluorimetry (Qubit), and the Aglient Bioanalyzer 2100 profiler. RNA Integrity Number (RIN) values of >7.0 and OD260/280=2.0-2.2 were used for RNA-seq library preparation. Extracted RNA (1 μg) was used for RNA sequencing (Illumina HiSeq2500 system). Sequenced reads were cleaned according to a rigorous pre-processing workflow (Trimmomatic-0.32) before mapping them to the mouse genome (mm10) using SHRiMP2.2.3 (http://compbio.cs.toronto.edu/shrimp/). Cufflinks2.0.2 (cuffdiff2-Running Cuffdiff) was then used to perform differential expression analysis with a FDR cutoff of 0.05 (95% confidence interval). A Perl script was used after differential expression analysis to improve the readability of the results files. Quality control information was generated via Fastqc: www.bioinformatics.babraham.ac.uk/projects/fastqc/. […] All gene expression profiles were analyzed by Partek Flow, Ingenuity Pathway Analysis and Gene Set Enrichment Analysis.

CD133 (+) Huh7 cells = assay: Anchorage-independent growth assay in soft agar; format: cell-based, human; settings: retinoic acid 5 μg/ml, SAHA 0.5 μg/ml; 2 weeks
Experimental: Freshly sorted CD133 (+)/(−) Huh7 cells were mixed with 0.35% agarose containing 1000 cells per well in culture medium with retinoic acid (5 μg/ml), SAHA (0.5 μg/ml), or a combination of both. After 2 weeks, the colony numbers were counted.

[2] = CD133 cell viability screening (luminescence, CellTiter-Glo); format: cell-based; settings: human, CD133 (−) Huh7 cells (freshly MACS-sorted)
Experimental: CD133(+) and CD133(−) Huh7 cells were freshly sorted using the MACS CD133 micro bead kit (Miltenyi Biotec, 130-050-801) and were seeded in 100 μl medium containing 5000 cells per well in a 96-well plate. Once the cells attached, the FDA approved drug library was added to each well to a final concentration of 20 μg/ml in duplicate. After incubation for 48 hours, the cell viability was determined by a luminescence assay. […] After 16 hours, 1 μl of a […] drug solution was individually added to the 96 wells, resulting in a 20 μg/ml final concentration for most compounds. After 48 hours, CellTiter-Glo® Reagent (G8233, Promega) was added and the luminescence signal was measured with an automated plate reader. The raw data for each well was background-corrected by DMSO control wells on the same plate.

TICs [3] = assay: Annexin V-PI staining and caspase activity analysis; format: cell-based; settings: 6 and 12 hours; p<0.05
Experimental: Annexin V staining was performed according to the manufacturer's instructions (A35110, Invitrogen). In brief, after drug treatment, the cells were washed twice with ice-cold phosphate-buffered saline (PBS) and detached by trypsin/EDTA. The cells were then incubated with 5 μl of Annexin V-APC in a 100 μl of cell suspension at room temperature for 15 minutes. After incubation, the cells were mixed with propidium iodide solution and analyzed by flow cytometry.
The caspase activity assay was performed according to the manufacturer's instructions (G8090, G8200, and G8210, Promega). In brief, 10,000 cells were plated into each well of a 96-well plate. After the cells attached, the drugs (5 μg/ml of ATRA and 0.5 μg/ml of SAHA) were added to each well and incubated for 6, 12, 16, and 24 hours. After incubation, the Caspase-Glo® substrate reagent was added to each well followed by incubation for 30 minutes. After incubation, the luminescence signal was measured with a luminometer.

With CC1=C(/C=C/C(C)=C/C=C/C(C)=C/C(=O)O)C(C)(C)CCC1 [ATRA, all-trans retinoic acid] the “genes differentially expressed from the controls” value (TICs [1]) was 189 genes, the “reduction of colony numbers, anchorage independent growth in soft agar” value (CD133 (+) Huh7 cells) was 50% and the viability at 48 h, 20 μg/ml [2] was 72%. For the same compound, the “caspase-8 (extrinsic) and caspase-9 (intrinsic) pathway activity” value (TICs [3]) was “induced both”.
